Measured values published in the supplement of paper PMC13207355.
Where a name gives a salt, the structure may show the parent alone.

What was measured:
Conditions in all cases: exposure time: 72 h
E28 [1] = patient-derived glioblastoma stem cells of classical subtype; test: phenotypic distance (Euclidean, principal components) from DMSO controls (arbitrary units); higher = stronger morphological change
E31 [2] = patient-derived glioblastoma stem cells of proneural subtype; test: as above
E21 [3] = patient-derived glioblastoma stem cells of mesenchymal subtype; test: as above
E57 [4] = patient-derived glioblastoma stem cells of mesenchymal subtype; test: as above
E34 [5] = patient-derived glioblastoma stem cells of proneural subtype; test: as above
FT3469 [6] = normal neural stem cell line; test: as above
E13 [7] = patient-derived glioblastoma stem cells of classical subtype; test: as above
E28 [8] = test: surviving fraction (nuclei count normalised to DMSO); higher = more cells surviving (less toxic)
E31 [9] = test: as above
E21 [10] = test: as above
E57 [11] = test: as above
E34 [12] = test: as above
FT3469 [13] = test: as above
E13 [14] = test: as above
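Wherever phenotypic distance (Euclidean, principal components) from DMSO controls is given: cell Painting imaging in 384-well plates, CellProfiler features reduced to at least 20 principal components, Euclidean distance versus same-plate DMSO vehicle wells (0.1% v/v), median over six images per well.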
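Wherever surviving fraction (nuclei count normalised to DMSO) is given: nuclei counted by high-content imaging of Hoechst-stained cells in laminin-coated 384-well plates, relative to 0.1% DMSO vehicle wells, with staurosporine as cell-death control.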

COc1cccc2c1C(=O)c1c(O)c3c(c(O)c1C2=O)C[C@@](O)(C(C)=O)C[C@@H]3O[C@H]1C[C@H](N)[C@H](O)[C@H](C)O1 [Daunorubicin hydrochloride]
Conditions | phenotypic distance | surviving fraction
E13 [7], 4.1 nM | 3.33 | –
E13 [7], 12.3 nM | 4.36 | –
E13 [7], 37 nM | 6.02 | –
E13 [7], 111.1 nM | 5.64 | –
E13 [7], 333.3 nM | 5.87 | –
E13 [7], 1000 nM | 7.81 | –
E13 [7], 3000 nM | 5.88 | –
E13 [14], 4.1 nM | – | 0.54
E13 [14], 12.3 nM | – | 0.512
E13 [14], 37 nM | – | 0.342
E13 [14], 111.1 nM | – | 0.381
E13 [14], 333.3 nM | – | 0.216
E13 [14], 1000 nM | – | 0.0373
E13 [14], 3000 nM | – | 0.0142
E21 [3], 4.1 nM | 1.95 | –
E21 [3], 12.3 nM | 4.33 | –
E21 [3], 37 nM | 6.78 | –
E21 [3], 111.1 nM | 5.96 | –
E21 [3], 333.3 nM | 5.7 | –
E21 [3], 1000 nM | 6.37 | –
E21 [3], 3000 nM | 6.06 | –
E21 [10], 4.1 nM | – | 0.844
E21 [10], 12.3 nM | – | 0.597
E21 [10], 37 nM | – | 0.451
E21 [10], 111.1 nM | – | 0.343
E21 [10], 333.3 nM | – | 0.151
E21 [10], 1000 nM | – | 0.0632
E21 [10], 3000 nM | – | 0.055
E28 [1], 4.1 nM | 1.76 | –
E28 [1], 12.3 nM | 2.56 | –
E28 [1], 37 nM | 2.56 | –
E28 [1], 111.1 nM | 3.09 | –
E28 [1], 333.3 nM | 3.78 | –
E28 [1], 1000 nM | 3.13 | –
E28 [1], 3000 nM | 5.54 | –
E28 [8], 4.1 nM | – | 0.408
E28 [8], 12.3 nM | – | 0.419
E28 [8], 37 nM | – | 0.339
E28 [8], 111.1 nM | – | 0.251
E28 [8], 333.3 nM | – | 0.185
E28 [8], 1000 nM | – | 0.187
E28 [8], 3000 nM | – | 0.11
E31 [2], 4.1 nM | 2.77 | –
E31 [2], 12.3 nM | 2.46 | –
E31 [2], 37 nM | 2.46 | –
E31 [2], 111.1 nM | 4.45 | –
E31 [2], 333.3 nM | 4.56 | –
E31 [2], 1000 nM | 7.33 | –
E31 [2], 3000 nM | 5.46 | –
E31 [9], 4.1 nM | – | 0.51
E31 [9], 12.3 nM | – | 0.293
E31 [9], 37 nM | – | 0.266
E31 [9], 111.1 nM | – | 0.134
E31 [9], 333.3 nM | – | 0.0818
E31 [9], 1000 nM | – | 0.0315
E31 [9], 3000 nM | – | 0.0944
E34 [5], 4.1 nM | 1.67 | –
E34 [5], 12.3 nM | 4.29 | –
E34 [5], 37 nM | 4.68 | –
E34 [5], 111.1 nM | 3.18 | –
E34 [5], 333.3 nM | 2.84 | –
E34 [5], 1000 nM | 4.23 | –
E34 [5], 3000 nM | 3.57 | –
E34 [12], 4.1 nM | – | 0.644
E34 [12], 12.3 nM | – | 0.611
E34 [12], 37 nM | – | 0.591
E34 [12], 111.1 nM | – | 0.445
E34 [12], 333.3 nM | – | 0.471
E34 [12], 1000 nM | – | 0.259
E34 [12], 3000 nM | – | 0.0925
E57 [4], 4.1 nM | 3.27 | –
E57 [4], 12.3 nM | 6.2 | –
E57 [4], 37 nM | 9.2 | –
E57 [4], 111.1 nM | 7.86 | –
E57 [4], 333.3 nM | 6.42 | –
E57 [4], 1000 nM | 6.83 | –
E57 [4], 3000 nM | 7.19 | –
E57 [11], 4.1 nM | – | 0.583
E57 [11], 12.3 nM | – | 0.325
E57 [11], 37 nM | – | 0.194
E57 [11], 111.1 nM | – | 0.178
E57 [11], 333.3 nM | – | 0.149
E57 [11], 1000 nM | – | 0.0932
E57 [11], 3000 nM | – | 0.0598
FT3469 [6], 4.1 nM | 1.72 | –
FT3469 [6], 12.3 nM | 1.77 | –
FT3469 [6], 37 nM | 2.11 | –
FT3469 [6], 111.1 nM | 2.17 | –
FT3469 [6], 333.3 nM | 2.57 | –
FT3469 [6], 1000 nM | 4.08 | –
FT3469 [6], 3000 nM | 7.48 | –
FT3469 [13], 4.1 nM | – | 0.644
FT3469 [13], 12.3 nM | – | 0.625
FT3469 [13], 37 nM | – | 0.487
FT3469 [13], 111.1 nM | – | 0.606
FT3469 [13], 333.3 nM | – | 0.593
FT3469 [13], 1000 nM | – | 0.0798
FT3469 [13], 3000 nM | – | 0.0266

C=C[C@H]1CN2CC[C@H]1C[C@@H]2[C@@H](O)c1ccnc2ccc(OC)cc12 [Quinidine hydrochloride monohydrate]
Conditions | phenotypic distance | surviving fraction
E13 [7], 4.1 nM | 2.06 | –
E13 [7], 12.3 nM | 2.74 | –
E13 [7], 37 nM | 0.288 | –
E13 [7], 111.1 nM | 0.43 | –
E13 [7], 333.3 nM | 3.29 | –
E13 [7], 1000 nM | 0.415 | –
E13 [7], 3000 nM | 0.498 | –
E13 [14], 4.1 nM | – | 0.965
E13 [14], 12.3 nM | – | 1.04
E13 [14], 37 nM | – | 1.06
E13 [14], 111.1 nM | – | 1.03
E13 [14], 333.3 nM | – | 0.954
E13 [14], 1000 nM | – | 1.09
E13 [14], 3000 nM | – | 1.01
E21 [3], 4.1 nM | 1.42 | –
E21 [3], 12.3 nM | 0.785 | –
E21 [3], 37 nM | 0.783 | –
E21 [3], 111.1 nM | 0.852 | –
E21 [3], 333.3 nM | 0.814 | –
E21 [3], 1000 nM | 0.565 | –
E21 [3], 3000 nM | 1.06 | –
E21 [10], 4.1 nM | – | 0.736
E21 [10], 12.3 nM | – | 1.03
E21 [10], 37 nM | – | 0.863
E21 [10], 111.1 nM | – | 1.03
E21 [10], 333.3 nM | – | 1
E21 [10], 1000 nM | – | 0.964
E21 [10], 3000 nM | – | 0.865
E28 [1], 4.1 nM | 0.692 | –
E28 [1], 12.3 nM | 0.479 | –
E28 [1], 37 nM | 0.471 | –
E28 [1], 111.1 nM | 0.837 | –
E28 [1], 333.3 nM | 0.667 | –
E28 [1], 1000 nM | 0.843 | –
E28 [1], 3000 nM | 0.738 | –
E28 [8], 4.1 nM | – | 1.12
E28 [8], 12.3 nM | – | 0.991
E28 [8], 37 nM | – | 1.14
E28 [8], 111.1 nM | – | 1.02
E28 [8], 333.3 nM | – | 1.15
E28 [8], 1000 nM | – | 1.07
E28 [8], 3000 nM | – | 1.2
E31 [2], 4.1 nM | 1.52 | –
E31 [2], 12.3 nM | 0.739 | –
E31 [2], 37 nM | 0.504 | –
E31 [2], 111.1 nM | 0.428 | –
E31 [2], 333.3 nM | 0.941 | –
E31 [2], 1000 nM | 0.478 | –
E31 [2], 3000 nM | 0.676 | –
E31 [9], 4.1 nM | – | 1.04
E31 [9], 12.3 nM | – | 0.915
E31 [9], 37 nM | – | 0.941
E31 [9], 111.1 nM | – | 0.942
E31 [9], 333.3 nM | – | 1.04
E31 [9], 1000 nM | – | 0.944
E31 [9], 3000 nM | – | 1.09
E34 [5], 4.1 nM | 1.26 | –
E34 [5], 12.3 nM | 0.809 | –
E34 [5], 37 nM | 1.05 | –
E34 [5], 111.1 nM | 0.841 | –
E34 [5], 333.3 nM | 0.778 | –
E34 [5], 1000 nM | 0.516 | –
E34 [5], 3000 nM | 0.396 | –
E34 [12], 4.1 nM | – | 1.06
E34 [12], 12.3 nM | – | 0.922
E34 [12], 37 nM | – | 0.904
E34 [12], 111.1 nM | – | 0.914
E34 [12], 333.3 nM | – | 1.02
E34 [12], 1000 nM | – | 0.91
E34 [12], 3000 nM | – | 0.984
E57 [4], 4.1 nM | 0.629 | –
E57 [4], 12.3 nM | 0.932 | –
E57 [4], 37 nM | 0.42 | –
E57 [4], 111.1 nM | 5.48 | –
E57 [4], 333.3 nM | 0.376 | –
E57 [4], 1000 nM | 0.318 | –
E57 [4], 3000 nM | 0.734 | –
E57 [11], 4.1 nM | – | 1.05
E57 [11], 12.3 nM | – | 1.09
E57 [11], 37 nM | – | 1.04
E57 [11], 111.1 nM | – | 1.07
E57 [11], 333.3 nM | – | 1.05
E57 [11], 1000 nM | – | 1.09
E57 [11], 3000 nM | – | 1.12
FT3469 [6], 4.1 nM | 1.14 | –
FT3469 [6], 12.3 nM | 0.621 | –
FT3469 [6], 37 nM | 0.809 | –
FT3469 [6], 111.1 nM | 0.891 | –
FT3469 [6], 333.3 nM | 0.965 | –
FT3469 [6], 1000 nM | 0.266 | –
FT3469 [6], 3000 nM | 0.69 | –
FT3469 [13], 4.1 nM | – | 0.974
FT3469 [13], 12.3 nM | – | 0.955
FT3469 [13], 37 nM | – | 1.03
FT3469 [13], 111.1 nM | – | 1.14
FT3469 [13], 333.3 nM | – | 1.03
FT3469 [13], 1000 nM | – | 0.998
FT3469 [13], 3000 nM | – | 0.957
